≈ marks a conversion by molar mass, not a printed value. Read-outs that look alike come from different tables or passages of the source.
How the values were obtained:
[1] = tested on: HepG2 cell line; assay: Resazurin cell growth inhibition assay, HepG2; format: cell-based, human; settings: Homo sapiens
Excerpt: (§1) All compounds 2a-e, 3a-d, and PPAD’s 4a-t were subjected to a screening system for evaluation of their anticancer activity against cell line of human cancer, namely liver (HepG2 and Huh-7) cancer and normal fibroblast cells obtained from the German Cancer Research Center (DKFZ), following the Resazurin Cell Growth Inhibition Assay[45] in comparison to the standard treatment using DOX (see Supplementary).
(§2) Cell culture and treatment
(§3) All reagents were handled in a sterile fume hood. DMEM medium, and fetal bovine serum (FBS) were purchased from Gibco;phosphate-buffered saline pH 7.4 (PBS) and trypsin-EDTA were obtained from Sigmae Aldrich. Alamar Blue or Resazurin (Promega,Mannheim, Germany) reduction assay was used to assess the cytotoxicity of the studied samples. The growth medium (DMEMmedium with 10% FBS, 10 0 U/mL penicillin, and 10 0 mg/L streptomycin), and alamar blue were stored at 48 C, while trypsineEDTA and FBS were stored frozen at 208C and thawed before use; PBS was stored at room temperature. The Hep-G2, Huh-7 and normal fibroblast cells were obtained from the German Cancer Research Center (DKFZ).Cells were cultured in 50 cm2 culture flask s (Corning) using DMEM medium supplemented with 10% FBS, penicillin (10 0 IU/mL), and streptomycin ([…]). The culture was maintained at 37 C atmosphere of 5% CO2 and 95% relative humidity. The cells were transferred to a new fl ask every 2 days and treated with trypsineEDTA to detach them from the flask . Cells were counted under a microscope using a hemacytometer (Hausser Scientific).Cell solutions were diluted with growth medium to a concentration of 1 *10^5 cells/mL and transferred to a 96-well plate, and treated with gradient concentrations of test compounds.
(§4) Resazurin cell growth inhibition assay
(§5) Alamar Blue or Resazurin (Promega, Mannheim, Germany) reduction assay was used to assess the cytotoxicity of the studied samples. The assay tests cellular viability and mitochondrial function. Briefly y, adherent cells were grown in tissue culture flask s, and then harvested by treating the fl asks with 0.025% trypsin and0.25 mM EDTA for 5 min. Once detached, cells were washed, counted and an aliquot (5 * 103cells) was placed in each well of a96-well cell culture plate in a total volume of […]. Cells were allowed to attach overnight and then treated with samples. The final concentration of samples ranged from 0 to 10 0 mM. After 4 8 h,[…] Resazurin 0.01% w/v solution was added to each well and the plates were incubated at 37C for 1 -2 h. Fluorescence was measured on an automated 96-well Infinite M2000 ProTM plate reader (Tecan, Crailsheim, Germany) using an excit ation wave-length of 54 4 nm and an emission wavelength of 590 nm. Doxorubicin was used as positive control. Each assay was done at least three times, with two replicates each. The viability was compared based on a comparison with untreated cells. IC50(on cancer cells) were the concentration of sample required to inhibit 50% of the cell proliferation and were calculated from a calibration curve by a linear regression using Microsoft Excel

[2] = Resazurin cell growth inhibition assay, normal fibroblast cells; format: cell-based; settings: M ± SEM of three independent experiments, read-out: Cytotoxic activity IC50, Fibroblast
Excerpt: as §1, §2, §3, §4, §5

[3] = tested on: Huh-7 cell line; assay: Resazurin cell growth inhibition assay, Huh-7; format: cell-based, human; settings: resazurin assay, 48 h, M ± SEM of three independent experiments; for IC50: Homo sapiens, Huh-7, 48 h, read-out: Cytotoxic activity IC50, Huh-7 cell line
Excerpt: as §1, §2, §3, §4, §5

[4] = HepG2, 48 h, resazurin assay, 48 h, M ± SEM of three independent experiments, read-out: Cytotoxic activity IC50, HepG2 cell line

melting point [°C] | IC50 ([1]; HepG2, converted from μg/mL, read-out: IC50 against HepG2 cell line, equivalent in μM) [µM] | SMILES | IC50 [1, 4] [µg/mL] | IC50 at 48 h [2] [µg/mL] | IC50 [3] [µg/mL] | Cytotoxic activity IC50, Huh-7 cell line [3] [µg/mL]
110 to 112 |  | COc1cc(C2CC(c3c4ccccc4cc4ccccc34)=NN2c2nc(-c3ccccc3)c(C#N)c(=O)[nH]2)cc(OC)c1OC (centres unmarked) [Compound 4c, 2-[3-Anthracene-9-yl-5–(3,4,5-trimethoxy-phenyl)-4,5-dihydro-pyrazol-1-yl]-6-oxo-4-phenyl-1,6-dihydro-pyrimidine-5-carbonitrile] | 15.3 ± 4.22 | 29.3 ± 3.51 (≈ 48.2 µM) | 11.3 ± 1.09 (≈ 18.6 µM) | 
120 to 122 |  | CN(C)c1ccc(C2CC(c3c4ccccc4cc4ccccc34)=NN2c2nc(-c3ccccc3)c(C#N)c(=O)[nH]2)cc1 (centres unmarked) [Compound 4b, 2-[3-Anthracene-9-yl-5–(4-dimethylamino-phenyl)-4,5-dihydro-pyrazol-1-yl]-6-oxo-4-phenyl-1,6-dihydro-pyrimidine-5-carbonitrile] | 15.3 ± 4.21 | 33 ± 6.51 (≈ 58.9 µM) | 10.9 ± 2.14 (≈ 19.5 µM) | 
 |  | COc1cc(-c2nc(NN)[nH]c(=O)c2C#N)cc(OC)c1OC [Compound 2d] | 20.6 ± 2.14 | 40.1 ± 1.37 (≈ 126 µM) | 21.8 ± 3.18 (≈ 68.7 µM) | 
 |  | N#Cc1c(-c2ccc(F)cc2)nc(NN)[nH]c1=O [Compound 2b] | 22.2 ± 2.2 | 40.6 ± 2.45 (≈ 165 µM) | 21.6 ± 2.19 (≈ 88.1 µM) | 
190 to 191 |  | CN(C)c1ccc(-c2nc(N3N=C(c4c5ccccc5cc5ccccc45)CC3c3c[nH]c4ccccc34)[nH]c(=O)c2C#N)cc1 (centres unmarked) [Compound 4t, 2-[3-Anthracene-9-yl-5-(1H-indol-3-yl)-4,5-dihydro-pyrazol-1-yl]-4–(4-dimethylamino-phenyl)-6-oxo-1,6-dihydro-pyrimidine-5-carbonitrile] | 9.21 ± 1.05 | 23.5 ± 3.82 (≈ 39.2 µM) | 7.42 ± 1.48 (≈ 12.4 µM) | 
 |  | N#Cc1c(-c2c[nH]c3ccccc23)nc(NN)[nH]c1=O [Compound 2c] | 20.2 ± 1.88 | 40.2 ± 2.13 (≈ 151 µM) | 21.3 ± 2.37 (≈ 80 µM) | 
220 to 222 |  | N#Cc1c(-c2c[nH]c3ccccc23)nc(N2N=C(c3c4ccccc4cc4ccccc34)CC2c2c[nH]c3ccccc23)[nH]c1=O (centres unmarked) [Compound 4l, 2-[3-Anthracene-9-yl-5-(1H-indol-3-yl)-4,5-dihydro-pyrazol-1-yl]-4-(1H-indol-3-yl)-6-oxo–1,6-dihydro-pyrimidine-5-carbonitrile] | 14.6 ± 2.12 | 20.2 ± 3.18 (≈ 34 µM) | 12.4 ± 1.75 (≈ 20.9 µM) | 
 | 10.1 | COc1cccc2c1C(=O)c1c(O)c3c(c(O)c1C2=O)C[C@@](O)(C(=O)CO)C[C@@H]3O[C@H]1C[C@H](N)[C@H](O)[C@H](C)O1 [Doxorubicin, reference compound] | 5.43 ± 0.24 | 24.1 ± 3.53 (≈ 44.4 µM) | 5.43 (≈ 9.99 µM) | 6.40 ± 0.43
214 to 216 |  | CN(C)c1ccc(-c2nc(NN)[nH]c(=O)c2C#N)cc1 [Compound 2e, 4-[4-(Dimethylamino)phenyl]-2-hydrazino-6-oxo-1,6-dihydropyrimidine-5-carbonitrile] | 20.1 ± 3 | 40.4 ± 1.89 (≈ 150 µM) | 21 ± 4.12 (≈ 77.7 µM) | 
 |  | COc1cc(/C=C/C(=O)c2c3ccccc3cc3ccccc23)cc(OC)c1OC [Compound 3c] | 21.5 ± 2.54 | 40.8 ± 4.51 (≈ 102 µM) | 21.5 ± 4.13 (≈ 54 µM) | 
143 to 145 |  | N#Cc1c(-c2ccc(F)cc2)nc(N2N=C(c3c4ccccc4cc4ccccc34)CC2c2c[nH]c3ccccc23)[nH]c1=O (centres unmarked) [Compound 4h, 2-[3-Anthracene-9-yl-5-(1H-indol-3-yl)-4,5-dihydro-pyrazol-1-yl]-4–(4-fluoro-phenyl)-6-oxo-1,6-dihydro-pyrimidine-5-carbonitrile] | 7.45 ± 1.11 | 23.5 ± 4.21 (≈ 40.9 µM) | 9.77 ± 1.48 (≈ 17 µM) | 
